# Patent US11945822B2, “Pyrazolo-triazine and/or pyrazolo-pxrimidine derivatives as selective inhibitor of cyclin dependent kinase” (QURIENT CO., LTD., priority 2018, dated 2024)
# How the values were obtained:
# [1] = tested on: HCT116; experiment: Cellular HCT116 viability assay (CellTiter-Glo, 72 hours); type: cell-based; conditions: Homo sapiens, HCT-116
# Method: (§1) All cell lines were routinely tested for mycoplasma.
# (§2) The effect of the CDK7 inhibitor to inhibit the growth of target cancer cells was evaluated through the 72 hours time period of viability assay. Briefly, the candidate cell line ware plated in 96 well plate at the following density of cells respectively. […] DMSO solvent without compound served as a control and final DMSO concentration less than 0.1%. After 72 hours of incubation at 37° C., 5% CO2 incubator, cells were analyzed for the viability using the CellTiter-Glo Luminescent Cell Viability Assay (Promega, Cat #G7570). All viability assays were performed in duplicate and Luminescence was read using an Envision (Perkin Elmer, USA). Data was analyzed using XLfit software.
# [2] = target: T1, CDK5/p25 (Homo sapiens, UniProt Q00535); experiment: Enzymatic assay for CDK5 (FRET based LANCE Ultra kinase assay); type: biochemical; conditions: read-out: CDK5 enzymatic activity (IC50 range)
# T1 construct: purchased Invitrogen PR8543B
# Method: (§3) Enzymatic Binding Assay Protocol for CDK1, CDK2, CDK5 and CDK7
# (§4) Inhibition activity of the respective compound on CDK kinase under Km value of ATP was tested in FRET based The LANCE® Ultra kinase assay (Perkin Elmer), which uses a ULight™-labeled peptide substrate and an appropriate Europium-labeled anti-phospho-antibody. Test compounds were made with DMSO solutions, and then 4-fold serial dilutions for 8 doses were prepared using automated liquid handler (POD810, LABCYTE) and 80 nL/well of diluted compound solutions were added into the 384-well plates (Greiner, Cat #784075). And then 68 nM of ULight-MBP peptide (Perkin Elmer, Cat #TRF0109-M) and 5 ul/well of ATP (Sigma, Cat #A7699) were added to the plate. After 1 min centrifugation at 1000 rpm, Purified CDKs/Cyclin complex were added following concentrations respectively. 24 uM for CDK1/Cyclin B (Invitrogen, Cat #PR4768C), 22 uM for CDK2/Cyclin A (Invitrogen, Cat #PV6290), 10 uM for CDK5/p25 (Invitrogen, Cat #PR8543B) and […] for CDK7/Cyclin H/MNAT1 (Invitrogen, Cat #PR6749B) were added to the each corresponding plate for CDK1, CDK2, CDK5 and CDK7. Incubate at 23° C. for 60 min and then Eu-labeled anti-phospho-Myelin Basic Protein (PE, Cat #TRF0201-M) and EDTA (Invitrogen, Cat #15575038) mixture in Lance Detection Buffer (Perkin Elmer, Cat #CR97100) was added in each well. After additional incubation at 23° C. for 60 min, test articles were measured the fluorescence using Envision leader (Perkin Elmer, USA) [Laser as excitation light; […] as the first and the second emission filter]. Data was analyzed using XL Fit software.
# [3] = tested on: H460; experiment: Cellular H460 viability assay (CellTiter-Glo, 72 hours); type: cell-based; conditions: Homo sapiens, NCI-H460
# Method: as §1, §2
# [4] = target: T2, CDK1/Cyclin B (Homo sapiens, UniProt P06493); experiment: Enzymatic assay for CDK1 (FRET based LANCE Ultra kinase assay); type: biochemical; conditions: read-out: CDK1 enzymatic activity (IC50 range)
# T2 construct: purchased Invitrogen PR4768C
# Method: as §3, §4
# [5] = target: T3, CDK7/Cyclin H/MNAT1 (Homo sapiens, UniProt P50613); experiment: Enzymatic assay for CDK7 (FRET based LANCE Ultra kinase assay); type: biochemical; conditions: for IC50: read-out: CDK7 enzymatic activity (IC50 range)
# T3 construct: purchased Invitrogen PR6749B
# Method: as §3
# Inhibition activity of the respective compound on CDK kinase under Km value of ATP was tested in FRET based The LANCE® Ultra kinase assay (Perkin Elmer), which uses a ULight™-labeled peptide substrate and an appropriate Europium-labeled anti-phospho-antibody. […] After 1 min centrifugation at 1000 rpm, Purified CDKs/Cyclin complex were added following concentrations respectively. […] Data was analyzed using XL Fit software.
# [6] = tested on: MV4-11; experiment: Cellular MV4-11 viability assay (CellTiter-Glo, 72 hours); type: cell-based; conditions: Homo sapiens
# Method: as §1, §2
# [7] = target: T4, CDK2/Cyclin A (Homo sapiens, UniProt P24941); experiment: Enzymatic assay for CDK2 (FRET based LANCE Ultra kinase assay); type: biochemical; conditions: read-out: CDK2 enzymatic activity (IC50 range)
# T4 construct: purchased Invitrogen PV6290
# Method: as §3, §4
# T1 sequence (Q00535 whole entry): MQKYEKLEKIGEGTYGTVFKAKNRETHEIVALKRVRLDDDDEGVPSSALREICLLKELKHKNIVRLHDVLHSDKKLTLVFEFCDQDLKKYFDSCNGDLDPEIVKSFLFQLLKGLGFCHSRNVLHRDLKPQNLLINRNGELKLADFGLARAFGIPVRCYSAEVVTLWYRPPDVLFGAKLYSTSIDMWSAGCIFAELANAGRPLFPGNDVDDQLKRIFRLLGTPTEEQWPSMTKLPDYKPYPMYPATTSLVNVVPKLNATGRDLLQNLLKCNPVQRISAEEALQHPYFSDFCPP
# T1 sequence (Q15078 99-307 partner limits assumed): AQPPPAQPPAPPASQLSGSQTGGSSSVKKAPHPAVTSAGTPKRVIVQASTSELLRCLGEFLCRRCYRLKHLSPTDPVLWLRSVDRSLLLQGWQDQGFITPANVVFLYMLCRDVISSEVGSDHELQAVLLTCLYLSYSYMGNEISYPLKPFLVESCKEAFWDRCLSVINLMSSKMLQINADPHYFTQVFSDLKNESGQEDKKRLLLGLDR
# T2 sequence (P06493 whole entry): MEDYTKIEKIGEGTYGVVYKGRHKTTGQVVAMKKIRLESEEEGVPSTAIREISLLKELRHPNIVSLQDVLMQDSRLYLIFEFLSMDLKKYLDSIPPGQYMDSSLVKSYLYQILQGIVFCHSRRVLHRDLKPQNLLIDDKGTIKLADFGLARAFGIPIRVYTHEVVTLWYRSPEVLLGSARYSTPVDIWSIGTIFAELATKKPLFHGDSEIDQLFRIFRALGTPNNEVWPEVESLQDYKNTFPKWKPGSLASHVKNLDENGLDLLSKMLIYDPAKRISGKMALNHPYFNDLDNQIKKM
# T2 sequence (P14635 whole entry partner): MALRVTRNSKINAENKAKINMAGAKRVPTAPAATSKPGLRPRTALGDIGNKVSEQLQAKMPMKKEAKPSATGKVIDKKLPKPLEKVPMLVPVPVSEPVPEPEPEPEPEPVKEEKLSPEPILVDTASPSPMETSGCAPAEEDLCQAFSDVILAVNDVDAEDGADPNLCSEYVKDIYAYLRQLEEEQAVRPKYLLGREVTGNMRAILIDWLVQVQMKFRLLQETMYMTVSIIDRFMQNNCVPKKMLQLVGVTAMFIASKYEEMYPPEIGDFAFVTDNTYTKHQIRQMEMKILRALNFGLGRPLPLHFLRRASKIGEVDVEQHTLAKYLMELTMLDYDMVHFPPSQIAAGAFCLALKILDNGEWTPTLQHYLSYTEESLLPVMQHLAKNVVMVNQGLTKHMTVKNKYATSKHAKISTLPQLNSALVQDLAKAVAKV
# T3 sequence (P50613 whole entry): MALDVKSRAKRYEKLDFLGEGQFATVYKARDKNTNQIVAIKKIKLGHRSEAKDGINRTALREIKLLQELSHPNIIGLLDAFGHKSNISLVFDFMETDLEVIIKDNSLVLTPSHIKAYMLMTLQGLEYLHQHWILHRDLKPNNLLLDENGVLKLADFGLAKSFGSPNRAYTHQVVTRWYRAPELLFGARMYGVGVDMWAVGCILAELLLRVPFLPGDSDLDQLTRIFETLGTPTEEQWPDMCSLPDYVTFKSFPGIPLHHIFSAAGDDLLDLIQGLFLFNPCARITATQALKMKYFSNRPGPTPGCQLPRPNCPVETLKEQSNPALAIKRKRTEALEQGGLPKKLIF
# T3 sequence (P51946 whole entry partner): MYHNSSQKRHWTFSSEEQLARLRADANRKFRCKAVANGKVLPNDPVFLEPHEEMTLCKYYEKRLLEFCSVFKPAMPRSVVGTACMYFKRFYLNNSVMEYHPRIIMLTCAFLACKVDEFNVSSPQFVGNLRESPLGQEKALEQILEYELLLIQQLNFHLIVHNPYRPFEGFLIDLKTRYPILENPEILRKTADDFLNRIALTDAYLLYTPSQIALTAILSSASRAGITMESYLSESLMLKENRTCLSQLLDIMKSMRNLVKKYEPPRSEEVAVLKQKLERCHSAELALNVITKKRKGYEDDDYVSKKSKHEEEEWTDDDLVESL
# T3 sequence (P51948 whole entry partner): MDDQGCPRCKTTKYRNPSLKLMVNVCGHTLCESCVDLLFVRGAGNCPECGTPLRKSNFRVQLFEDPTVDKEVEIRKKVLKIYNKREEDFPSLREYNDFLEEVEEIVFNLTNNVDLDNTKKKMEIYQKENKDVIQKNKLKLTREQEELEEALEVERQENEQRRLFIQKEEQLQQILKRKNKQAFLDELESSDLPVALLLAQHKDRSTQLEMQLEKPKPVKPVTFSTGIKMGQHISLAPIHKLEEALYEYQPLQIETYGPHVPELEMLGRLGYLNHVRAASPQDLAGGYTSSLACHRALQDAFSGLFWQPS
SMILES,IC50 [1],IC50 [2],IC50 [3],IC50 [4],CDK1/CDK7: Selectivity of CDK7 inhibition over CDK1 inhibition [5],CDK2/CDK7: Selectivity of CDK7 inhibition over CDK2 inhibition [5],CDK5/CDK7: Selectivity of CDK7 inhibition over CDK5 inhibition [5],IC50 [5],IC50 [6],IC50 [7]
CC(C)c1cnn2c(NCc3ccccc3-c3ccc4ccccc4n3)nc(NCC(O)CCN)nc12 (racemic) [Compound 240],< 1000 nM,> 1000 nM,< 1000 nM,> 1000 nM,A (A=greater than 200 fold),A (A=greater than 200 fold),A (A=greater than 200 fold),< 100 nM,< 1000 nM,> 1000 nM
CC(C)c1cnn2c(NCc3c(Cl)cccc3C(C)(C)O)nc(N3CCC(N)CC3)nc12 [Compound 239],1000 to 10000 nM,> 1000 nM,1000 to 10000 nM,> 1000 nM,A (A=greater than 200 fold),A (A=greater than 200 fold),A (A=greater than 200 fold),< 100 nM,1000 to 10000 nM,> 1000 nM
CC(C)c1cnn2c(NCc3ccccc3-n3ccc(C(C)(C)O)n3)nc(N3CCC(O)(CN)CC3)nc12 [Compound 228],< 1000 nM,100 to 1000 nM,< 1000 nM,> 1000 nM,A (A=greater than 200 fold),A (A=greater than 200 fold),A (A=greater than 200 fold),< 100 nM,< 1000 nM,> 1000 nM
CC(C)c1cnn2c(NCc3ccccc3-c3ccc4ccccc4n3)cc(OCC3CCNCC3)nc12 [Compound 213],1000 to 10000 nM,> 1000 nM,1000 to 10000 nM,> 1000 nM,A (A=greater than 200 fold),A (A=greater than 200 fold),A (A=greater than 200 fold),< 100 nM,1000 to 10000 nM,> 1000 nM
CC(C)c1cnn2c(NCc3ccccc3-n3ccc(C(C)(C)O)n3)nc(N3CCC(CN)CC3)nc12 [Compound 221],< 1000 nM,> 1000 nM,< 1000 nM,> 1000 nM,A (A=greater than 200 fold),A (A=greater than 200 fold),A (A=greater than 200 fold),< 100 nM,< 1000 nM,> 1000 nM
CC(=O)NC1CCN(c2nc(NCc3c(Cl)cccc3-n3ccc(C(C)(C)O)n3)n3ncc(C(C)C)c3n2)CC1 [Compound 199],< 1000 nM,> 1000 nM,< 1000 nM,> 1000 nM,A (A=greater than 200 fold),A (A=greater than 200 fold),A (A=greater than 200 fold),< 100 nM,1000 to 10000 nM,> 1000 nM
Cc1cccc(C)c1CNc1nc(N2CCC(N)CC2)nc2c(C(C)C)cnn12 [Compound 235],1000 to 10000 nM,100 to 1000 nM,1000 to 10000 nM,> 1000 nM,A (A=greater than 200 fold),"B (B=less than 200 fold, but greater than 20 fold)","B (B=less than 200 fold, but greater than 20 fold)",< 100 nM,1000 to 10000 nM,> 1000 nM
CC(C)c1cnn2c(NCc3c(Cl)cccc3-n3cc(N4CCOCC4)cn3)nc(N3CCC(N)CC3)nc12 [Compound 203],< 1000 nM,> 1000 nM,< 1000 nM,> 1000 nM,A (A=greater than 200 fold),A (A=greater than 200 fold),A (A=greater than 200 fold),< 100 nM,< 1000 nM,> 1000 nM
